# Results as given in patent publication US4590207A, “Therapeutic and/or preventive ophthalmic solution for intraocular hypertension and glaucoma” (Eisai Co., Ltd., priority 1984, dated 1986).
# How the values were obtained:
# [1] = tested on: intraocular hypertension of rabbits caused by α-chymotrypsin; experiment: Effect on intraocular hypertension of rabbits caused by α-chymotrypsin (intraocular tension); format: in vivo, male white rabbits; parameters: Intraocular tension: unit not given here; details: for Intraocular tension: 35 μl instilled, mean of five animals ± standard error; for effects of lowering intraocular tension (conclusion): ophthalmic solution containing 5-ISMN or 2-ISMN
# Experimental: Models of intraocular hypertension were prepared by the use of male white rabbits of approximately 2.5 kg in body weight according to the method reported by Sears (cf. Sears, D. and Sears, M., Am. J. Ophthalmol., Vol. 77, No. 3, p. 378 to 383, 1974). A rabbit was anesthetized by intravenously injecting 20 mg/kg of pentobarbital sodium and 2% of lidocaine was instilled in the left eye of the animal to anesthetize locally. A volume of 0.5 ml physiological saline solution was injected into the anterior chamber of the left eye with a needle and subsequently 0.5 ml of α-chymotrypsin 300 NFU/ml was injected into the posterior chamber with another needle while holding the former needle as such. After removing the needle inserted into the posterior chamber, the needle inserted into the anterior chamber was removed. The rabbit experimentally suffering from intraocular hypertension thus prepared was allowed to stand for 25 to 30 days to thereby recover from postoperative keratitis or conjunctivitis and to hold a stable intraocular hypertension. Then it was subjected to the test.
# Intraocular tension was determined with a Perkin's Hand Applanation Tonometer (a product of Clement Clark, London) under anesthesia with 2% halothane, having 2 l/min of oxygen, and local anesthesia with 0.4% of benoxil.
# Intraocular tension was measured five times and the mean value was recorded.
# 5-ISMN and 2-ISMN were employed as the test compounds and dissolved in a physiological saline solution.
# A volume of 35 μl of each solution was instilled in the left eye treated with α-chymotrypsin. Each solution was administered to five rabbits according to a crossover design.
# [2] = Solubility in water; format: physicochemical
# [3] = tested on: ddy mice; experiment: Acute toxicity (intravenous), mortality 24 hours after administration; format: in vivo; details: for mortality: 24 hours
# Experimental: 500 mg/kg and 1,000 mg/kg of each of isosorbide-5-mononitrate (5-ISMN) and isosorbide-2-mononitrate (2-ISMN) were intravenously injected to ddy mice of approximately 20 g in body weight to observe their toxicity. The mortality was determined 24 hours after the administration.
# [4] = 500 mg/kg intravenous, ten animals
SMILES,"Intraocular tension ([1]; 0 hr, 3.0% solution)","Intraocular tension ([1]; 1 hr, 3.0% solution)","Intraocular tension ([1]; 3 hr, 3.0% solution)","Intraocular tension ([1]; 5 hr, 3.0% solution)","Intraocular tension ([1]; 7 hr, 3.0% solution)","Intraocular tension ([1]; 9 hr, 3.0% solution)",effects of lowering intraocular tension (conclusion) [1],solubility in water [2],"mortality [3, 4]","mortality ([3]; 1,000 mg/kg intravenous)",also measured
"O=[N+]([O-])OC1COC2C(O)COC12 (stereo not drawn) [2-ISMN, isosorbide-2-mononitrate]",31.2 ± 0.6,29.0 ± 0.8,29.1 ± 0.9,25.1 ± 1.4,24.6 ± 1.4,21.8 ± 1.3,"remarkable, continuous effects of lowering intraocular tension",highly soluble in water,No animal died of the ten animals,No animal died of the ten animals,"effect of lowering intraocular tension ([1]; dose of 3%): exhibits an effect of lowering intraocular tension; symptoms observed ([3]; 500 mg/kg and 1,000 mg/kg groups, intravenous): Slight ataxia"
"O=[N+]([O-])OC1COC2C(O)COC12 (stereo not drawn) [5-ISMN, isosorbide-5-mononitrate]",30.8 ± 0.8,20.3 ± 0.9,16.4 ± 0.5,15.7 ± 0.5,16.2 ± 1.8,16.2 ± 2.2,"remarkable, continuous effects of lowering intraocular tension",highly soluble in water,No animal died of the ten animals,no animal died,"Intraocular tension ([1]; 0 hr, 0.3% solution): 30.5 ± 0.8; Intraocular tension ([1]; 0 hr, 1.0% solution): 30.2 ± 0.5; Intraocular tension ([1]; 1 hr, 0.3% solution): 21.5 ± 0.5; Intraocular tension ([1]; 1 hr, 1.0% solution): 22.0 ± 1.9; Intraocular tension ([1]; 3 hr, 0.3% solution): 20.1 ± 0.9; Intraocular tension ([1]; 3 hr, 1.0% solution): 19.1 ± 0.6; Intraocular tension ([1]; 5 hr, 0.3% solution): 19.8 ± 1.2; Intraocular tension ([1]; 5 hr, 1.0% solution): 18.6 ± 0.9; Intraocular tension ([1]; 7 hr, 0.3% solution): 20.5 ± 0.7; Intraocular tension ([1]; 7 hr, 1.0% solution): 18.5 ± 1.0; Intraocular tension ([1]; 9 hr, 0.3% solution): 19.6 ± 1.8; Intraocular tension ([1]; 9 hr, 1.0% solution): 19.8 ± 1.3; dose dependence of effect of lowering intraocular tension ([1]; dose of 0.3 to 3%): would depend on the dose; duration of effect of lowering intraocular tension ([1]; dose of 0.3 to 3%): at least nine; effect of lowering intraocular tension ([1]; dose of 0.3 to 3%): remarkable effect of lowering intraocular tension; symptoms observed ([3]; 500 mg/kg intravenous): Slight ataxia and restlessness; time to disappearance of symptoms (ataxia and restlessness) ([3]; 500 mg/kg intravenous): ≤ 30 min"
